These are literature values, as cited in patent publication US20060159724A1, “Nutritional supplement for the management of weight” (priority 2000, published 2006).

For data set [1] the following is noted: area under glycemic response curve, 2-hour period after 50 g carbohydrate, divided by standard (white bread or glucose).
Setting [2] is: first 6-week period, no dietary restrictions.

Where two headings read alike, the source gives them in different places.

Turning to `N[C@@H](Cc1c[nH]c2ccc(O)cc12)C(=O)O` [5-HTP, 5-hydroxytryptophan], in the data set on obese subjects (setting [2]), the “decrease in carbohydrate intake” value was “about 50%” and the “subjects with early satiety” value is reported as 100%. In addition, the weight loss in the data set on obese subjects (obese subjects, 900 mg 5-HTP three times a day 30 minutes before meals, two 6-week periods, p<0.02 vs control arm) is listed as 5%. The “subjects with early satiety” value in the data set with obese subjects (second 6-week period, energy-restricted diet of 1,200 kcal) is 90%.
As to `O=C(CO)[C@@H](O)[C@H](O)[C@H](O)CO` [Fructose, fructose], in data set [1], the “glycemic index (GI)” value was 32.
